Results published in article PMC11053489 (Viruses, 2024).
Where a name gives a salt, the structure may show the parent alone. Read-outs that look alike come from different tables or passages of the source.

Key:
[1] = Peak plasma concentration; settings: human, in vivo
[2] = test system: SARS-CoV-2 (hCoV-19/USA-WA1/2020) in Vero CCL-81 cells; assay: microbe, parasite or virus in culture; format: cell-based; settings: for anti-SARS-CoV-2 activity (in words), concentrations up to 100 μM: Vero CCL-81 cells
[3] = in vitro; settings: human
[4] = in vitro; settings: African green monkey
[5] = test system: Huh-7 cells; settings: human, 4 days
[6] = test system: SARS-CoV-2 (hCoV-19/USA-WA1/2020) in Caco-2 cells
[7] = human, in vivo
[8] = in vitro; settings: human, Caco-2
[9] = test system: SARS-CoV-2 (hCoV-19/USA-WA1/2020) in Caco-2 cells; assay: microbe, parasite or virus in culture; settings: Severe acute respiratory syndrome coronavirus 2, Caco-2, 72 h; for EC50: read-out: Caco-2 SARS-CoV-2 EC50; for EC90: read-out: Caco-2 SARS-CoV-2 EC90
[10] = in vitro; settings: human; remark: listed apart in the source
[11] = test system: CCRF-CEM cells; settings: human, 4 days
[12] = test system: SARS-CoV-2 (hCoV-19/USA-WA1/2020) in Calu-3 cells; assay: microbe, parasite or virus in culture; format: cell-based; settings: for EC50 / EC90: Severe acute respiratory syndrome coronavirus 2, Calu-3, MOI 0.01, 72 h, 2% FBS; for EC50: read-out: Calu-3 SARS-CoV-2 EC50; for anti-SARS-CoV-2 activity in Calu-3 cells (in words): tested up to 100 μM; for EC90: read-out: Calu-3 SARS-CoV-2 EC90
[13] = MTS cytotoxicity assay, Vero CCL-81 cells; settings: African green monkey
[14] = cited from earlier work; for Fun: Table 3, 1 – fraction bound reported in the literature, ref column Refs of Table 3
[15] = MTS cytotoxicity assay, CEM cells; settings: human
[16] = MTS cytotoxicity assay, PBM cells; settings: human
[17] = MTS cytotoxicity assay, Caco-2 cells; settings: human
[18] = MTS cytotoxicity assay, Calu-3 cells; settings: human
[19] = MTS cytotoxicity assay, Huh-7 cells; settings: human
[20] = Severe acute respiratory syndrome coronavirus 2, Table 1 drugs, MOI 0.1, 48 h, 2% FBS, read-out: Vero CCL-81 SARS-CoV-2 EC50
[21] = Severe acute respiratory syndrome coronavirus 2, Table 1 drugs, MOI 0.1, 48 h, 2% FBS, read-out: Vero CCL-81 SARS-CoV-2 EC90
[22] = NAs and nucleoside-base precursors, evaluated up to 20 μM
[23] = Severe acute respiratory syndrome coronavirus 2, Table 3, drugs tested only in Vero CCL-81, MOI 0.1, 48 h, read-out: Vero CCL-81 Cells EC50
[24] = Severe acute respiratory syndrome coronavirus 2, Table 3, drugs tested only in Vero CCL-81, MOI 0.1, 48 h, read-out: Vero CCL-81 Cells EC90

## CC(C)(O)c1ccccc1CC[C@@H](SCC1(CC(=O)O)CC1)c1cccc(/C=C/c2ccc3ccc(Cl)cc3n2)c1 [Montelukast sodium]
[1]
  Cmax (μM) {unbound}: 0.009 µM

## Cc1cccc(/C=N/Nc2cc(N3CCOCC3)nc(OCCc3ccccn3)n2)c1 [Apilimod mesylate]
[2]; [20]
  EC50: 0.7 µM
[2]; [21]
  EC90: 7.4 µM
[3]
  CC50 at 5 days: > 100 µM
[4]
  CC50 at 3 days: > 100 µM
[5]
  Huh7 CC50 {Unbound}: 54.8 µM
[6]; Caco-2
  Caco-2 Unbound Cmax/EC50: 0.0005
[7]
  Cmax (μM) {unbound}: 0.043 µM
[8]
  CC50 at 3 days: > 100 µM
[9]
  EC50: 85 µM
  EC90: > 100 µM
[10]
  CC50 at 3 days: > 100 µM
[11]
  CEM CC50 {Unbound}: 62.2 µM
[12]
  EC50: > 100 µM
  anti-SARS-CoV-2 activity in Calu-3 cells (in words): inactive

## NC(=O)c1ncn([C@@H]2O[C@H](CO)[C@@H](O)[C@H]2O)n1 [ribavirin]
[2]; [22]
  antiviral activity in Vero CCL-81 cells (in words): lack of antiviral activity

## CC(C)OC(=O)[C@H](C)N[P@](=O)(CO[C@H](C)Cn1cnc2c(N)ncnc21)Oc1ccccc1 [tenofovir alafenamide]
[2]
  antiviral activity in Vero CCL-81 cells (in words): lack of antiviral activity

## NC(N)=Nc1nc(CSCCC(N)=NS(N)(=O)=O)cs1 [Famotidine]
[2]; [23]
  EC50: 160 µM
[13]
  CC50 at 3 days: > 100 µM
[1]
  Cmax (μM) {unbound}: 0.16 µM
[14]
  Fun: 0.8

## CN1CC[C@H](c2c(O)cc(O)c3c(=O)cc(-c4ccccc4Cl)oc23)[C@H](O)C1 [Flavopiridol]
[2]; [23]
  EC50: 0.1 µM
[2]; [24]
  EC90: 1.1 µM
[13]
  CC50 at 3 days: 0.031 µM
[1]
  Cmax (μM) {unbound}: 0.096 µM
[14]
  Fun: 0.05

## c1cc(CN2CCCNCCNCCCNCC2)ccc1CN1CCCNCCNCCCNCC1 [plerixafor]
[2]
  anti-SARS-CoV-2 activity (in words), concentrations up to 100 μM: inactive

## CC(C)OC(=O)OCOP(=O)(CO[C@H](C)Cn1cnc2c(N)ncnc21)OCOC(=O)OC(C)C [tenofovir disoproxil fumarate]
[2]; [22]
  antiviral activity in Vero CCL-81 cells (in words): lack of antiviral activity

## O=C(O)Cc1ccccc1Nc1c(Cl)cccc1Cl [Diclofenac sodium]
[2]; [23]
  EC50: 97.6 µM
[2]; [24]
  EC90: 141 µM
[13]
  CC50 at 3 days: > 100 µM
[1]
  Cmax (μM) {unbound}: 0.012 µM

## O=C1O[C@H]([C@@H](O)CO)C(O)=C1O [L-ascorbic acid]
[2]
  anti-SARS-CoV-2 activity (in words), concentrations up to 100 μM: inactive

## CC(=O)Oc1ccccc1C(=O)Nc1ncc([N+](=O)[O-])s1 [Nitazoxanide]
[2]; [20]
  EC50: 1.4 µM
[2]; [21]
  EC90: 3.9 µM
[3]
  CC50 at 5 days: 8.3 µM
[4]
  CC50 at 3 days: 8.7 µM
[6]; Caco-2
  Caco-2 Unbound Cmax/EC50: 0.078
[7]
  Cmax (μM) {unbound}: 0.014 µM
[8]
  CC50 at 3 days: 7.2 µM
[9]
  EC50: 4.4 µM
  EC90: 11.1 µM
[14]; Table 1, ref column Refs of Table 1
  Fun (unbound fraction of drug in plasma): 0.01
[10]
  CC50 at 3 days: 49.8 µM
[12]
  EC50: 22.8 µM
  EC90: 42.9 µM

## COC(=O)N[C@H](C(=O)N1CCC[C@H]1c1nc(-c2ccc3c(c2)O[C@@H](c2ccccc2)n2c-3cc3cc(-c4c[nH]c([C@@H]5CCCN5C(=O)[C@@H](NC(=O)OC)C(C)C)n4)ccc32)c[nH]1)C(C)C [Elbasivir]
[2]; [23]
  EC50: 3.4 µM
[2]; [24]
  EC90: 12.5 µM
[4]
  CC50 at 3 days: > 100 µM
[7]
  Cmax (μM) {unbound}: 0.003 µM

## CN(Cc1cc(Br)cc(Br)c1N)C1CCCCC1 [Bromhexine]
[2]; [23]
  EC50: 0.8 µM
[2]; [24]
  EC90: 6.2 µM
[4]
  CC50 at 3 days: > 100 µM
[7]
  Cmax (μM) {unbound}: 0.005 µM

## Cc1ccc(-c2cc(C(F)(F)F)nn2-c2ccc(S(N)(=O)=O)cc2)cc1 [Celecoxib]
[2]; [20]
  EC50: 7.2 µM
[2]; [21]
  EC90: 14.6 µM
[15]
  CC50 at 4 days: 77.1 µM
[16]
  CC50 at 5 days: > 100 µM
[13]
  CC50 at 3 days: 50 µM
[17]
  CC50 at 3 days: 59.1 µM
[18]
  CC50 at 3 days: 70.5 µM
[6]; Cmax × Fun/EC50
  Caco-2 Unbound Cmax/EC50: 0.08
[1]
  Cmax (μM) {unbound}: 0.056 µM
[9]
  EC50: 0.7 µM
  EC90: 1.2 µM
[19]
  CC50 at 4 days: 31.1 µM
[12]
  EC50: 3 µM
  EC90: 6.3 µM

## CC(C)/N=c1\cc2n(-c3ccc(Cl)cc3)c3ccccc3nc-2cc1Nc1ccc(Cl)cc1 [Clofazimine]
[2]; [23]
  EC50: 0.5 µM
[2]; [24]
  EC90: 3 µM
[4]
  CC50 at 3 days: 34.3 µM
[1]
  Cmax (μM) {unbound}: 0.002 µM
[14]
  Fun: 0.001

## CC#CC(=O)N1CCC[C@H]1c1nc(-c2ccc(C(=O)Nc3ccccn3)cc2)c2c(N)nccn12 [Acalabrutinib]
[2]; [23]
  EC50: 11.1 µM
[2]; [24]
  EC90: 70.9 µM
[4]
  CC50 at 3 days: > 100 µM
[7]
  Cmax (μM) {unbound}: 0.017 µM

## CCCCCc1cc(O)c2c(c1)OC(C)(C)c1ccc(C)cc1-2 [Cannabinol]
[2]; Severe acute respiratory syndrome coronavirus 2, 48 h, read-out: Vero CCL-81 Cells EC50
  EC50: 2.7 µM
[2]; Severe acute respiratory syndrome coronavirus 2, 48 h, read-out: Vero CCL-81 Cells EC90
  EC90: 8.7 µM
[4]
  CC50: 37.3 µM
[14]
  Fun: 0.1

## CC(C)C(=O)OCC(=O)[C@@]12O[C@H](C3CCCCC3)O[C@@H]1C[C@H]1[C@@H]3CCC4=CC(=O)C=C[C@]4(C)[C@H]3[C@@H](O)C[C@@]12C [Ciclesonide]
[2]; [23]
  EC50: 4.1 µM
[2]; [24]
  EC90: 7.8 µM
[4]
  CC50 at 3 days: 33.9 µM
[7]
  Cmax (μM) {unbound}: 0.0000/1 μM

## NC12CC3CC(CC(C3)C1)C2 [Amantadine]
[13]
  CC50 at 3 days: > 100 µM
[1]
  Cmax (μM) {unbound}: 0.002 µM

## O=C(O)COCCN1CCN(C(c2ccccc2)c2ccc(Cl)cc2)CC1 (stereo not shown) [cetirizine]
[2]
  anti-SARS-CoV-2 activity (in words), concentrations up to 100 μM: inactive

## CC(C)OC(=O)[C@H](C)N[P@](=O)(OC[C@H]1O[C@@H](n2ccc(=O)[nH]c2=O)[C@](C)(F)[C@@H]1O)Oc1ccccc1 [sofosbuvir]
[2]
  antiviral activity in Vero CCL-81 cells (in words): lack of antiviral activity

## COC[C@H]1C[C@@H](c2ncc(-c3ccc4c(c3)COc3cc5c(ccc6nc([C@@H]7CC[C@H](C)N7C(=O)[C@@H](NC(=O)OC)C(C)C)[nH]c65)cc3-4)[nH]2)N(C(=O)[C@H](NC(=O)OC)c2ccccc2)C1 [Velpatasvir]
[2]; [23]
  EC50: 19.1 µM
[2]; [24]
  EC90: 79.6 µM
[4]
  CC50 at 3 days: > 100 µM
[7]
  Cmax (μM) {unbound}: 0.001 µM

## Nc1nc(=O)n([C@@H]2CS[C@H](CO)O2)cc1F [emtricitabine]
[2]; [22]
  antiviral activity in Vero CCL-81 cells (in words): lack of antiviral activity

## CC(C)C(=O)OC[C@H]1O[C@@H](n2ccc(NO)nc2=O)[C@H](O)[C@@H]1O [Molnupiravir (NHC), Molnupiravir]
[2]; [20]
  EC50: 0.6 µM
[2]; [21]
  EC90: 1.4 µM
[6]; Caco-2
  Caco-2 Unbound Cmax/EC50: 5.3
[7]
  Cmax (μM) {unbound}: 7.10 µM
[9]
  EC50: 1.7 µM
  EC90: 12.2 µM
[14]; plasma
  Fun (unbound fraction of drug in plasma): 1
[12]
  EC50: 0.4 µM
  EC90: 1.8 µM

## Nc1ccn([C@@H]2CS[C@H](CO)O2)c(=O)n1 [lamivudine]
[2]; [22]
  antiviral activity in Vero CCL-81 cells (in words): lack of antiviral activity

## CN(C)CCC(c1ccc(Cl)cc1)c1ccccn1 (stereo not shown) [Chlorpheniramine maleate]
[2]; [23]
  EC50: 31 µM
[2]; [24]
  EC90: 104 µM
[13]
  CC50 at 3 days: > 100 µM
[1]
  Cmax (μM) {unbound}: 0.008 µM
[14]
  Fun: 0.28

## CC(C)C(=O)OC[C@H]1O[C@@](C#N)(c2ccc3c(N)ncnn23)[C@H](O)[C@@H]1O [Obeldesivir]
[6]; Caco-2
  Caco-2 Unbound Cmax/EC50: 72
[7]
  Cmax (μM) {unbound}: 5.79 µM

## COc1ccc2[nH]cc(CCNC(C)=O)c2c1 [Melatonin]
[2]; [23]
  EC50: 22 µM
[13]
  CC50 at 3 days: > 100 µM
[1]
  Cmax (μM) {unbound}: 0.005 µM
[14]
  Fun: 0.22

## C[C@H]1c2cccc(O)c2C(=O)C2=C(O)[C@]3(O)C(=O)C(C(N)=O)=C(O)[C@@H](N(C)C)[C@@H]3[C@@H](O)[C@@H]21 [Doxycycline]
[2]; [23]
  EC50: 69.3 µM
[2]; [24]
  EC90: 102 µM
[13]
  CC50 at 3 days: ≥ 100 µM
[1]
  Cmax (μM) {unbound}: 0.55 µM
[14]
  Fun: 0.15

## CC(C)OC(=O)C(C)(C)Oc1ccc(C(=O)c2ccc(Cl)cc2)cc1 [Fenofibrate]
[15]; CEM CC50, 4 days
  CC50 at 4 days: 28.5 µM
[16]
  CC50 at 5 days: 38.9 µM
[13]
  CC50 at 3 days: > 100 µM
[17]
  CC50 at 3 days: > 100 µM
[18]
  CC50 at 3 days: ≥ 100 µM
[6]; tested up to 100 μM
  anti-SARS-CoV-2 activity in Caco-2 cells (in words): inactive
[1]
  Cmax (μM) {unbound}: 0.28 µM
[19]
  CC50 at 4 days: > 100 µM
[12]
  anti-SARS-CoV-2 activity in Calu-3 cells (in words): inactive

## C[C@@H]1C[C@H]2[C@@H]3CCC4=CC(=O)C=C[C@]4(C)[C@@]3(F)[C@@H](O)C[C@]2(C)[C@@]1(O)C(=O)CO [dexamethasone]
[2]
  anti-SARS-CoV-2 activity (in words), concentrations up to 100 μM: inactive
